Source: publication PMC7044277 (Nature Communications, 2020)
Where “and” joins values, the source holds several entries; their conditions need not be identical. Equal values may be shown once.

What was measured:
Format in all cases: cell-based
320 non-olfactory GPCRs [1] = biological target: T1, 320 non-olfactory GPCRs (Homo sapiens, UniProt P18089)
T1 construct: expressed in transfected cells; host or cells: HTLA cells

320 non-olfactory GPCRs [2] = biological target: 320 non-olfactory GPCRs (Homo sapiens, UniProt P30542)
320 non-olfactory GPCRs [3] = biological target: T2, 320 non-olfactory GPCRs (Homo sapiens, UniProt Q15077); conditions: receptor P2RY6; replicate values, Fig_4g
T2 construct: expressed in transfected cells; host or cells: HTLA cells

320 non-olfactory GPCRs [4] = biological target: T3, 320 non-olfactory GPCRs (Homo sapiens, UniProt Q86SQ4)
T3 construct: expressed in transfected cells; host or cells: HTLA cells
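Throughout, for Fold of Basal: compound tested at 1 µM final concentration.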
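Throughout, for GPCRome agonism screen response: fold over basal response of each receptor without drug.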

T3 sequence (Q86SQ4 38-1221): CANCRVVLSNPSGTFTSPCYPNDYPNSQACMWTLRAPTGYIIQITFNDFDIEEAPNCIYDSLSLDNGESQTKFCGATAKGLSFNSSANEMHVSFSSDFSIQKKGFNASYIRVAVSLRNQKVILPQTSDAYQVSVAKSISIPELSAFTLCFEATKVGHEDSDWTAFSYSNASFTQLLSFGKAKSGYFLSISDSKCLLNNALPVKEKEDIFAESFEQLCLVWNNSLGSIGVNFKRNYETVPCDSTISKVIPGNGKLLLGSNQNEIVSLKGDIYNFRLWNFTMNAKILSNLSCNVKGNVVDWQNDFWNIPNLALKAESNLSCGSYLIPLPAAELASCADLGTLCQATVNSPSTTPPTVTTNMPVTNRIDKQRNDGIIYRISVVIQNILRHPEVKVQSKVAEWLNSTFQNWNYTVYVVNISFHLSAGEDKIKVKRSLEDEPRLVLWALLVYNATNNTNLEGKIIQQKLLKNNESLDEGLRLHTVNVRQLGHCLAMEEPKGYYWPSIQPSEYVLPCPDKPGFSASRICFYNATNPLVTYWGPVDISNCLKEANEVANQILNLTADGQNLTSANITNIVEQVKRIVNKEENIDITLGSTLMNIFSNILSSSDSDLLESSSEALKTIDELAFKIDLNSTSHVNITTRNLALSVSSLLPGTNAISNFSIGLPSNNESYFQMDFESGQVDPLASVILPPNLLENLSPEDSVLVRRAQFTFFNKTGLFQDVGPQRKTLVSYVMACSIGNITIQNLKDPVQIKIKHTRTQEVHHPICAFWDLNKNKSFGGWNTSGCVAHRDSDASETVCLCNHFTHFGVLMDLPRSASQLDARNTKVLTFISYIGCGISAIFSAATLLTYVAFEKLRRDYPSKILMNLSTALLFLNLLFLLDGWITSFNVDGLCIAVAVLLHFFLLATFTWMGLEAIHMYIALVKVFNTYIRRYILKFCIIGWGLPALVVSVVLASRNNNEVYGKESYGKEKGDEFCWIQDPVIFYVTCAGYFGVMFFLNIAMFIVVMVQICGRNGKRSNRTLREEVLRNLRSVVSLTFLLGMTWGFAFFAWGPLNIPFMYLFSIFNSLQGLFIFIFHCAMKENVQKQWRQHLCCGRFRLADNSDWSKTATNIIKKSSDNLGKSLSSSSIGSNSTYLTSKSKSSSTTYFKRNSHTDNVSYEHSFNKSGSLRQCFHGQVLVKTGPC
T1 sequence (P18089 whole entry): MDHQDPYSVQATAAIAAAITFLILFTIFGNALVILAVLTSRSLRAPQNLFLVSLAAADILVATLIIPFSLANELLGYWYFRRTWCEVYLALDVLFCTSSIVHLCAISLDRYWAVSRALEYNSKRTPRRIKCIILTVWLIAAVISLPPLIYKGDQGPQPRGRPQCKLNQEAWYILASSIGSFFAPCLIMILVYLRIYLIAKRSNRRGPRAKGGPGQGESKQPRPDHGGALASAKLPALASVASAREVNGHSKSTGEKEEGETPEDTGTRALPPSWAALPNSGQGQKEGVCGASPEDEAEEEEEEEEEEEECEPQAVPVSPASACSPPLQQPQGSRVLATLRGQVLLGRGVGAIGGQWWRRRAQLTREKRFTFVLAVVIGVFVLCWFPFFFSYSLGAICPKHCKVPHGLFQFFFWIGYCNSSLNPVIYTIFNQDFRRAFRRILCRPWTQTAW
Chain of 320 non-olfactory GPCRs (Homo sapiens, UniProt P30542) (P30542 whole entry): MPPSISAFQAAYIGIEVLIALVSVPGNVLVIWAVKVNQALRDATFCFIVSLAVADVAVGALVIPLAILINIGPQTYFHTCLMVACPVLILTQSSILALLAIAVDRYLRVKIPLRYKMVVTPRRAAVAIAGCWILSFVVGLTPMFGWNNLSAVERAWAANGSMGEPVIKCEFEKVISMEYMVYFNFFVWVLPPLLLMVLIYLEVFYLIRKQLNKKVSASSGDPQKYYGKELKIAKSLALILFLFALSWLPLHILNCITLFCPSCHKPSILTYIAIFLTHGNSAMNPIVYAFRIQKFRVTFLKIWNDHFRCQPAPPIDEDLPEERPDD
T2 sequence (Q15077 whole entry): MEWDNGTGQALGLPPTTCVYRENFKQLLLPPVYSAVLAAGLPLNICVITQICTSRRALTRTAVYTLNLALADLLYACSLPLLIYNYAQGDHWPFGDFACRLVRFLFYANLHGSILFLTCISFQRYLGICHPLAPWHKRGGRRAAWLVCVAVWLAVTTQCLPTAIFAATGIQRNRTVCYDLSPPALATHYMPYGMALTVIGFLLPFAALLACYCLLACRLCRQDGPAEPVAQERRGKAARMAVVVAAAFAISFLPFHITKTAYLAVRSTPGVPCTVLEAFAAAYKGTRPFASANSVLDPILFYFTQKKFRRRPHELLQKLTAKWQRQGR

`CCOc1cccc2cc(C(C)NCC3(O)CCCCC3)oc12` (stereo not shown) [O4LE6] was tested, and the “Fold of Basal” value (320 non-olfactory GPCRs [1]) was 0.5251 and 0.72 and 0.7774 and 1.019, the “Fold of Basal” value (320 non-olfactory GPCRs [2]) was 0.6117 and 1.0436 and 0.9318 and 0.9525 and the “GPCRome agonism screen response” value (320 non-olfactory GPCRs [3]) was 0.88 and 0.9723 and 0.9546 and 1.27. For the same compound, the “Fold of Basal” value (320 non-olfactory GPCRs [4]) was 0.5649 and 0.8908 and 0.7066 and 0.464.
